Structures can show the parent of a compound that is named as a salt. Where two headings read alike, the source gives them in different places.
Columns and labels:
[1] = biological target: T1, Human vitronectin receptor (αv β3) (Homo sapiens, UniProt P05106+P06756); assay: Vitronectin adhesion assay (solid phase receptor assay, αvβ3); assay type: binding
T1 construct: Human vitronectin receptor (αv β3) was purified from human placenta; from tissue; host or cells: human placenta
Experimental: (§1) The activity of the compounds of the present invention was tested in the following assays.
Human vitronectin receptor (αv β3) was purified from human placenta as previously described [Pytela et al., Methods in Enzymology, 144:475-489 (1987)]. Human vitronectin was purified from fresh frozen plasma as previously described [Yatohgo et al., Cell Structure and Function, 13:281-292 (1988)]. Biotinylated human vitronectin was prepared by coupling NHS-biotin from Pierce Chemical Company (Rockford, Ill.) to purified vitronectin as previously described [Charo et al., J. Biol. Chem., 266(3):1415-1421 (1991)]. Assay buffer, OPD substrate tablets, and RIA grade BSA were obtained from Sigma (St. Louis, Mo.). Anti-biotin antibody was obtained from Calbiochem (La Jolla, Calif.). Linbro microtiter plates were obtained from Flow Labs (McLean, Va.). ADP reagent was obtained from Sigma (St. Louis, Mo.).
(§2) Solid Phase Receptor Assays
This assay was essentially the same as previously reported [Niiya et al., Blood, 70:475-483 (1987)]. The purified human vitronectin receptor (αv β3) was diluted from stock solutions to […] in Tris-buffered saline containing 1.0 mM Ca^++, Mg^++, and Mn^++, pH 7.4 (TBS^+++). The diluted receptor was immediately transferred to Linbro microtiter plates at 100 μL/well (100 ng receptor/well). The plates were sealed and incubated overnight at 4° C. to allow the receptor to bind to the wells. All remaining steps were at room temperature. The assay plates were emptied and 200 μL, of 1% RIA grade BSA in TBS^+++ (TBS^+++ /BSA) were added to block exposed plastic surfaces. Following a 2 hour incubation, the assay plates were washed with TBS^+++ using a 96 well plate washer. Logarithmic serial dilution of the test compound and controls were made starting at a stock concentration of 2 mM and using 2 nM biotinylated vitronectin in TBS^+++ /BSA as the diluent. This premixing of labeled ligand with test (or control) ligand, and subsequent transfer of 50 μL aliquots to the assay plate was carried out with a CETUS Propette robot; the final concentration of the labeled ligand was 1 nM and the highest concentration of test compound was 1.0×10^-4 M. The competition occurred for two hours after which all wells were washed with a plate washer as before. Affinity purified horseradish peroxidase labeled goat anti-biotin antibody was diluted 1:3000 in TBS^+++ /BSA and 125 μL were added to each well. After 30 minutes, the plates were washed and incubated with OPD/H2 O2 substrate in 100 mM/L Citrate buffer, pH 5.0. The plate was read with a microtiter plate reader at a wavelength of 450 nm and when the maximum-binding control wells reached an absorbance of about 1.0, the final A450 were recorded for analysis. The data were analyzed using a macro written for use with the EXCEL™ spreadsheet program. The mean, standard deviation, and % CV were determined for duplicate concentrations. The mean A450 values were normalized to the mean of four maximum-binding controls (no competitor added) (B-MAX). The normalized values were subjected to a four parameter curve fit algorithm [Rodbard et al., Int.

[2] = biological target: T2, Human fibrinogen receptor (αIIb β3) (Homo sapiens, UniProt P05106+P08514); assay: Purified IIb/IIIa receptor assay (solid phase receptor assay); conditions: inhibition of binding of biotinylated human vitronectin (1 nM) to purified receptor; Table I
T2 construct: Human fibrinogen receptor (αIIb β3) was purified from outdated platelets; from tissue; host or cells: human outdated platelets
Experimental: as §1
Human fibrinogen receptor (αIIb β3) was purified from outdated platelets. (Pytela, R., Pierschbacher, M. D., Argraves, S., Suzuki, S., and Rouslahti, E. "Arginine-Glycine-Aspartic acid adhesion receptors", Methods in Enzymology 144(1987):475-489.) Human vitronectin was purified from fresh frozen plasma as described in Yatohgo, T., Izumi, M., Kashiwagi, H., and Hayashi, M., "Novel purification of vitronectin from human plasma by heparin affinity chromatography," Cell Structure and Function 13(1988):281-292. Biotinylated human vitronectin was prepared by coupling NHS-biotin from Pierce Chemical Company (Rockford, Ill.) to purified vitronectin as previously described. (Charo, I. F., Nannizzi, L., Phillips, D. R., Hsu, M. A., Scarborough, R. M., "Inhibition of fibrinogen binding to GP IIb/IIIa by a GP IIIa peptide", J. Biol. Chem. 266(3) (1991): 1415-1421.) Assay buffer, OPD substrate tablets, and RIA grade BSA were obtained from Sigma (St. Louis, Mo.). Anti-biotin antibody was obtained from Calbiochem (La Jolla, Calif.). Linbro microtiter plates were obtained from Flow Labs (McLean, Va.). ADP reagent was obtained from Sigma (St. Louis, Mo.).
as §2
This assay is essentially the same reported in Niiya, K., Hodson, E., Bader, R., Byers-Ward, V. Koziol, J. A., Plow, E. F. and Ruggeri, Z. M., "Increased surface expression of the membrane glycoprotein IIb/IIIa complex induced by platelet activation: Relationships to the binding of fibrinogen and platelet aggregation", Blood 70 (1987):475-483. The purified human fibrinogen receptor (αIIb β3) was diluted from stock solutions to 1.0 μg/mL in Tris-buffered saline containing 1.0 mM Ca^++, Mg^++, and Mn^++, pH 7.4 (TBS^+++). The diluted receptor was immediately transferred to Linbro microtiter plates at 100 μL/well (100 ng receptor/well). The plates were sealed and incubated overnight at 4° C. to allow the receptor to bind to the wells. All remaining steps were at room temperature. The assay plates were emptied and 200 μL of 1% RIA grade BSA in TBS^+++ (TBS^+++ /BSA) were added to block exposed plastic surfaces. Following a 2 hour incubation, the assay plates were washed with TBS^+++ using a 96 well plate washer. Logarithmic serial dilution of the test compound and controls were made starting at a stock concentration of 2 mM and using 2 nM biotinylated vitronectin in TBS^+++ /BSA as the diluent. This premixing of labeled ligand with test (or control) ligand, and subsequent transfer of 50 μL aliquots to the assay plate was carried out with a CETUS Propette robot; the final concentration of the labeled ligand was 1 nM and the highest concentration of test compound was 1.0×10^-4 M. The competition occurred for two hours after which all wells were washed with a plate washer as before. Affinity purified horseradish peroxidase labeled goat anti-biotin antibody was diluted 1:3000 in TBS^+++ /BSA and 125 μL were added to each well. After 30 minutes, the plates were washed and incubated with […]/H2 O2 substrate in 100 mM/L citrate buffer, pH 5.0. The plate was read with a microtiter plate reader at a wavelength of 450 nm and when the maximum-binding control wells reached an absorbance of about 1.0, the final A450 were recorded for analysis. The data were analyzed using a macro written for use with the EXCEL™ spreadsheet program. The mean, standard deviation, and % CV were determined for duplicate concentrations. The mean A450 values were normalized to the mean of four maximum-binding controls (no competitor added) (B-MAX). The normalized values were subjected to a four parameter curve fit algorithm, [Robard et al., Int.

[3] = inhibition of binding of biotinylated human vitronectin (1 nM) to purified receptor, Table I, read-out: AvB3 IC50

T2 sequence (P08514 32-887 limits assumed): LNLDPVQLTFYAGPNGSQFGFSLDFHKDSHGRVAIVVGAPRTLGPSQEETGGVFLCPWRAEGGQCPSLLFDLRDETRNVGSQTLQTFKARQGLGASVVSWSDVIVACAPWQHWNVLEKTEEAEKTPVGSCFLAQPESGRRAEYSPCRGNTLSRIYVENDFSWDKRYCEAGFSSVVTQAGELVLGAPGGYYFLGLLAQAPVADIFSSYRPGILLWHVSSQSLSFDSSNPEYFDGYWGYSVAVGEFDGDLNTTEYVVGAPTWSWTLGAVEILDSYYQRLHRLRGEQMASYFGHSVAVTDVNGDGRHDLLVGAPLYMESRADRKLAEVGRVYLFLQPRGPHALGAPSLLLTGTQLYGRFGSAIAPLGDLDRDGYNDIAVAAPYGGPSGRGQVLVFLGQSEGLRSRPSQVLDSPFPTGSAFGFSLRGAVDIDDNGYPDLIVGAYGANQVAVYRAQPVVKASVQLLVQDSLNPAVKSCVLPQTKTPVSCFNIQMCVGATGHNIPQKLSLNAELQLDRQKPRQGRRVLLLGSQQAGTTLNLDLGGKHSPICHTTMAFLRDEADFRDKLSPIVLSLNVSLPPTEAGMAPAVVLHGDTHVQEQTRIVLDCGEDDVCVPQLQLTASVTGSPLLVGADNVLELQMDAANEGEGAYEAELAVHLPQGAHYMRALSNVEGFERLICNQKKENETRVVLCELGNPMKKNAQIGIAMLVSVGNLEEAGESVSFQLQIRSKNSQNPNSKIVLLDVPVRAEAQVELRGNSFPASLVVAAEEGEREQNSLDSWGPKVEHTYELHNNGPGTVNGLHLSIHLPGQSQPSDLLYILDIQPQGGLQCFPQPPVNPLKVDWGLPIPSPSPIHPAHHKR
T2 sequence (P08514 891-1039 limits assumed): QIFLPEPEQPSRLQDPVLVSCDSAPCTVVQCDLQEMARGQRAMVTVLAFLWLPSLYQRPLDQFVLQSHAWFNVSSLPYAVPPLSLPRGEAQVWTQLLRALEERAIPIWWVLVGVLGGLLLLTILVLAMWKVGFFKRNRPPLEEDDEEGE
T2 sequence (P05106 27-788): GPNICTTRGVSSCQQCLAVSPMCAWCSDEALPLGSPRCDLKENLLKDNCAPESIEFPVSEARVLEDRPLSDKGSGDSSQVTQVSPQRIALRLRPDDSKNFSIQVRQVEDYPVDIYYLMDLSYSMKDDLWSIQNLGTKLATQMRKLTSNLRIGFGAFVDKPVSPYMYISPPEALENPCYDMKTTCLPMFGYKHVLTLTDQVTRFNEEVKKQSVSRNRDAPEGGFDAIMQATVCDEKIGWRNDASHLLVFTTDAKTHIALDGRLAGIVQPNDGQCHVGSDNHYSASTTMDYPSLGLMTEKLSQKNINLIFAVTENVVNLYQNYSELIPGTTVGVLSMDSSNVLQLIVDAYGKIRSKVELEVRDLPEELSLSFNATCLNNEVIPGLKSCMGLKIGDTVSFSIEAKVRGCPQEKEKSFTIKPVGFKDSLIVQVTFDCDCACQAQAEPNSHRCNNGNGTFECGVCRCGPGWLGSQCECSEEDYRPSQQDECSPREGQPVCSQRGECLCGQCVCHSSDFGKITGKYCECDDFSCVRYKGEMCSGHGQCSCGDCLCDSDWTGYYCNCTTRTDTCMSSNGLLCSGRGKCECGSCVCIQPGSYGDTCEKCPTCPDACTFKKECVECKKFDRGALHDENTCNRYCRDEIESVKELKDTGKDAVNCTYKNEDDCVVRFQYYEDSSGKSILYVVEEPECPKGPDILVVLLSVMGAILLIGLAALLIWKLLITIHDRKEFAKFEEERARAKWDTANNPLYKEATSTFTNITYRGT
T1 sequence (P06756 31-889 limits assumed): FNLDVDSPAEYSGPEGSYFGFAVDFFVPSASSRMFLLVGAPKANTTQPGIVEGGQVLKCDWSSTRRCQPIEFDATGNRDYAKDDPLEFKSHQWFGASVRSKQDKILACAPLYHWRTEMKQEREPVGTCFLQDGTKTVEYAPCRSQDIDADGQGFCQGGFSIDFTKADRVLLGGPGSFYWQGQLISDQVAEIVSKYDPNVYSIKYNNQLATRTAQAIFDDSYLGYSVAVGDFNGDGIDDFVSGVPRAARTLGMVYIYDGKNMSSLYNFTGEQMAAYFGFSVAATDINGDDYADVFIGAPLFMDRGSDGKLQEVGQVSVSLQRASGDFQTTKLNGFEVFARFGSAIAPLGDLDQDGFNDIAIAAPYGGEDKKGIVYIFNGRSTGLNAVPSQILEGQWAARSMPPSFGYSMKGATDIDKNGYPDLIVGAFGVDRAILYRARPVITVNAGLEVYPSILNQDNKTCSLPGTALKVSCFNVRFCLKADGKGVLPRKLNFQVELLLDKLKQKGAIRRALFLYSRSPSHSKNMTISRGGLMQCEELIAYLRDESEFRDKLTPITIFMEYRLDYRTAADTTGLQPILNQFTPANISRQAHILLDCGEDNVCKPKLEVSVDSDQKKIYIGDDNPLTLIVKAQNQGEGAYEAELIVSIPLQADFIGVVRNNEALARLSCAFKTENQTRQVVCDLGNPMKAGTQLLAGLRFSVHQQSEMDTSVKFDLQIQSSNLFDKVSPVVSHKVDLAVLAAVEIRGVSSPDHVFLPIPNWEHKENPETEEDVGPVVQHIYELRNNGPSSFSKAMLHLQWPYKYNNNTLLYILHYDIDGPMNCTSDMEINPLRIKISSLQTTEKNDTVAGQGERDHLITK
T1 sequence (P06756 891-1048 limits assumed): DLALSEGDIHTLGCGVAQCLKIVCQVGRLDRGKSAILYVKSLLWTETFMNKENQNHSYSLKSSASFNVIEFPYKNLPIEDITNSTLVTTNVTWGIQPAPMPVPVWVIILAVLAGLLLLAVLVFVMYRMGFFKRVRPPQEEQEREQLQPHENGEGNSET
T1 sequence (P05106 27-788): as the sequence (P05106 27-788) above

Row | IC50 [1, 3] | IC50 [2] | Structure (SMILES) | IC50 ([1]; positive control included on each plate, read-out: αv β3 antagonist IC50 of positive control)
1 | 207 nM | 15600 nM | N=C(N)Nc1cccc(C(O)CCc2cccc(/C=C/C(=O)O)c2)c1 (racemic) [Example 96, 3-[3-[3-[3-[(aminoiminomethyl)amino]phenyl]-3-hydroxypropyl]phenyl]propenoic acid, trifluoroacetate salt] | –
2 | 79.8 nM | 2270 nM | N=C(N)Nc1cccc(C(=O)Nc2ccc(C(=CC(=O)O)c3ccccc3)cc2)c1 (single isomer, unassigned) [Example 58, 3-[4-[[[3-[(aminoiminomethyl)amino]phenyl]-carbonyl]amino]phenyl]-3-phenylpropenoic acid, trifluoroacetate salt] | –
3 | 15800 nM | > 100000 nM | COC(=O)/C=C/c1cccc(CNC(=O)c2cccc(NC(=N)N)c2)c1 [Example 1, methyl 3-[3-[[[[3-[(aminoiminomethyl)-amino]phenyl]carbonyl]amino]methyl]phenyl]-2-propenoate, trifluoroacetate salt] | –
4 | 13 nM | 657 nM | N=C(N)Nc1cccc(C(=O)NCc2cccc(/C=C/C(=O)O)c2)c1 [Example 2, 3-[3-[[[[3-[(aminoiminomethyl)amino]phenyl]carbonyl]amino]methyl]phenyl]-2-propenoic acid, trifluoroacetate salt] | –
5 | 29000 nM | 32200 nM | CCOC(=O)/C=C/c1ccc(NC(=O)c2cccc(NC(=N)N)c2)cc1 [Example 3, ethyl 3-[4-[[[3-[(aminoiminomethyl)amino]phenyl]carbonyl]amino]phenyl]-2-propenoate, monohydrate trifluoroacetate salt] | –
6 | 10.6 nM | 7.05 nM | N=C(N)Nc1cccc(C(=O)Nc2ccc(/C=C/C(=O)O)cc2)c1 [Example 4, 3-[4-[[[3-[(aminoiminomethyl)amino]phenyl]carbonyl]amino]phenyl]-2-propenoic acid, trifluoroacetate salt] | –
7 | 4.01 nM | 9.58 nM | Cc1cc(/C=C/C(=O)O)ccc1NC(=O)c1cccc(NC(=N)N)c1 [Example 5, 3-[4-[[[3-[(arainoiminomethyl)amino]phenyl]carbonyl]amino]-3-methylphenyl]propenoic acid, trifluoroacetate salt] | –
8 | 2.95 nM | 15.1 nM | CCc1cc(/C=C/C(=O)O)ccc1NC(=O)c1cccc(NC(=N)N)c1 [Example 7, 3-[4-[[[3-[(aminoiminomethyl)amino]phenyl]carbonyl]amino]-3-ethylphenyl]propenoic acid, trifluoroacetate salt] | –
9 | 3.46 nM | 11 nM | N=C(N)Nc1cccc(C(=O)Nc2ccc(/C=C/C(=O)O)cc2Cl)c1 [Example 9, 3-[4-[[[3-[(aminoiminomethyl)amino]phenyl]-carbonyl]amino]3-chlorophenyl]propenoic acid, trifluoroacetate salt] | –
10 | 7.07 nM | 14.1 nM | N=C(N)Nc1cccc(C(=O)Nc2ccc(/C=C/C(=O)O)cc2F)c1 [Example 11, 3-[4-[[[3-[(aminoiminomethyl)aminolphenyl]carbonyl]-amino]-3-fluorophenyl]-2E-propenoic acid, trifluoroacetate salt] | –
11 | 155 nM | 670 nM | N=C(N)Nc1cccc(C(=O)Nc2ccc(/C=C/C(=O)O)cc2C(F)(F)F)c1 [Example 12, 3-[4-[[[3-[(aminoiminomethyl)amino]phenyl]carbonyl]amino]-3-(trifluoromethyl)phenyl]-2E-propenoic acid, trifluoroacetate salt] | –
12 | 23.3 nM | – | N=C(N)Nc1cccc(C(=O)Nc2ccc(/C=C/C(=O)O)c(Cl)c2)c1 [Example 28, 3-[4-[[[3-[(aminoiminomethyl)amino]phenyl]carbonyl]-amino]-2-chlorophenyl]propenoic acid, trifluoroacetate salt] | –
13 | – | – | N=C(N)NCCCCC(=O)NCC(=O)NC(CC(=O)O)c1cccnc1 (stereo not drawn) [β-[[2-[[5-[(aminoiminomethyl)amino]-1-oxopentyl]amino]-1-oxoethyl]amino]-3-pyridinepropanoic acid] | 3 to 10 nM
